Assays:
cck2 = assay: Kinase specificity: cck2; type: biochemical; conditions: tested at 50 μM; approximate IC50(app)=A×i/(1−A)
Description: (§1) IC50 values were determined with curve-fitting plots available with common softeware packages. Approximate IC50 values were calculated using formula IC50(app)=A×i/(1−A) where A=fractional activity and i=total inhibitor concentration.
(§2) Compounds 5 and 7 were tested for their specificity for p38 by assessing their ability to inhibit other kinases. These compounds were tested at 50 μM and were soluble at 250 μM in 5% DMSO/95% water.

p38-β = p38-β (Homo sapiens, UniProt Q15759); assay: p38-β inhibition; type: biochemical; conditions: curve fitted
Sequence of p38-β (Q15759 whole entry): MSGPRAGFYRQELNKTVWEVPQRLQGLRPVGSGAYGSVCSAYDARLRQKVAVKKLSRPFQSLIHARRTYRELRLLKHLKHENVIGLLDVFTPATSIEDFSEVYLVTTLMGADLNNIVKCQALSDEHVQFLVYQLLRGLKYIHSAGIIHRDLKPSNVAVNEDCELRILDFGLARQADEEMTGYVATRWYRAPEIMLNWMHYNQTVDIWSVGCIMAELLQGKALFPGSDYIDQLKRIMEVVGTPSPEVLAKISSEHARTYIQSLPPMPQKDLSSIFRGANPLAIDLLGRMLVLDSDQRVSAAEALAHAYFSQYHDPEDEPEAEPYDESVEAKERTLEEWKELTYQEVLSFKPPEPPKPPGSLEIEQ
Description: as §1

EGF-R = EGF-R (Homo sapiens, UniProt P00533); assay: Kinase specificity: EGF-R; type: biochemical; conditions: tested at 50 μM; approximate IC50(app)=A×i/(1−A)
Sequence of EGF-R (P00533 25-1210, species assumed): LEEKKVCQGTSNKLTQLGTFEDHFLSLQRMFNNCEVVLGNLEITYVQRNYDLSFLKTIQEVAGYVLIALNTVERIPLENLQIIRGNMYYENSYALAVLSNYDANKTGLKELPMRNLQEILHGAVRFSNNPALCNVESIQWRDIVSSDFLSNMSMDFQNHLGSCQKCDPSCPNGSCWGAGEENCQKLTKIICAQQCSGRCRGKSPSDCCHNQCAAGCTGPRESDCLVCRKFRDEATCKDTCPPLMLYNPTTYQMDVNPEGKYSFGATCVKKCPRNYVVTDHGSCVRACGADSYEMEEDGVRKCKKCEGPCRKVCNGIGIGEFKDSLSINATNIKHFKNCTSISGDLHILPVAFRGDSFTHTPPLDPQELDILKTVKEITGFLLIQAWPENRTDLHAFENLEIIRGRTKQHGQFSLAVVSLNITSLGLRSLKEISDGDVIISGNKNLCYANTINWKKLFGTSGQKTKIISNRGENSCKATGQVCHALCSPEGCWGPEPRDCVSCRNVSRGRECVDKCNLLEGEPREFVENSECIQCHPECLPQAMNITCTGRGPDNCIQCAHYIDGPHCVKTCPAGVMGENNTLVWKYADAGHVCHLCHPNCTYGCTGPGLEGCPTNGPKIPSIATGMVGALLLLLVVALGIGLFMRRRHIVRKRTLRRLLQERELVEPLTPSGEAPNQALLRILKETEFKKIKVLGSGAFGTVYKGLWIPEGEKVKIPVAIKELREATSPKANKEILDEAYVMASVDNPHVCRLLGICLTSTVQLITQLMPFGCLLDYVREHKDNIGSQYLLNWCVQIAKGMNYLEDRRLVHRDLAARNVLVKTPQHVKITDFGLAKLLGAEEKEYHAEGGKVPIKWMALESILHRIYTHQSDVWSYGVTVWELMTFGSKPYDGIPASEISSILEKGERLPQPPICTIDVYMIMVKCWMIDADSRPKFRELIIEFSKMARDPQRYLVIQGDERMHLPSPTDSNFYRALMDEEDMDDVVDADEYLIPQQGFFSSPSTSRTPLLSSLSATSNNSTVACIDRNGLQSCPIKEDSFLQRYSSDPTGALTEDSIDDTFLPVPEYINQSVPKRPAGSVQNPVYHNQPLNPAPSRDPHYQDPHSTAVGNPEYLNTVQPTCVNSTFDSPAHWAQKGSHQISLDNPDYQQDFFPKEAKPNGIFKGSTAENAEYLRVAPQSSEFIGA
Description: as §1, §2

PKC = assay: Kinase specificity: PKC; type: biochemical; conditions: tested at 50 μM; approximate IC50(app)=A×i/(1−A)
Description: as §1, §2

PKA = PKA (Homo sapiens, UniProt P17612); assay: Kinase specificity: PKA; type: biochemical; conditions: tested at 50 μM; approximate IC50(app)=A×i/(1−A)
Description: as §1, §2

[1] = Solubility in 5% DMSO/95% water; type: physicochemical; conditions: aqueous with cosolvent or surfactant or cyclodextrin, read-out: soluble at
Description: as §2

DNA-dep PK (PKD) = DNA-dep PK (PKD) (Homo sapiens, UniProt P78527); assay: Kinase specificity: DNA-dep PK; type: biochemical; conditions: tested at 50 μM; approximate IC50(app)=A×i/(1−A)
Description: as §1, §2

p38-γ = molecular target: T1, p38-γ (Homo sapiens, UniProt P53778); assay: Kinase specificity: p38-γ; type: biochemical; conditions: tested at 50 μM; approximate IC50(app)=A×i/(1−A)
T1 sequence (P53778 1-367): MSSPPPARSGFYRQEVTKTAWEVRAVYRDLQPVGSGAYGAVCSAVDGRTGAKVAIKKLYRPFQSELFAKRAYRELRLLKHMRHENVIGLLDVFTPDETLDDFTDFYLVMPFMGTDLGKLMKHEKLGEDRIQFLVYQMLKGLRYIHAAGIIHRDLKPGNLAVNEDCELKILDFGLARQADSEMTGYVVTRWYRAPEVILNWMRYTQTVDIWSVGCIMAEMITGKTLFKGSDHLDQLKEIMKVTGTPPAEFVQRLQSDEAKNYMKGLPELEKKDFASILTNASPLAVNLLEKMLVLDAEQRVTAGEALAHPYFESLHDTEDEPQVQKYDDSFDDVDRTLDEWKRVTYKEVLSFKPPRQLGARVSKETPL
Description: as §1, §2

JNK1 = JNK1 (Homo sapiens, UniProt P45983); assay: Kinase specificity: JNK1; type: biochemical; conditions: tested at 50 μM; approximate IC50(app)=A×i/(1−A)
Sequence of JNK1 (P45983 whole entry, species assumed): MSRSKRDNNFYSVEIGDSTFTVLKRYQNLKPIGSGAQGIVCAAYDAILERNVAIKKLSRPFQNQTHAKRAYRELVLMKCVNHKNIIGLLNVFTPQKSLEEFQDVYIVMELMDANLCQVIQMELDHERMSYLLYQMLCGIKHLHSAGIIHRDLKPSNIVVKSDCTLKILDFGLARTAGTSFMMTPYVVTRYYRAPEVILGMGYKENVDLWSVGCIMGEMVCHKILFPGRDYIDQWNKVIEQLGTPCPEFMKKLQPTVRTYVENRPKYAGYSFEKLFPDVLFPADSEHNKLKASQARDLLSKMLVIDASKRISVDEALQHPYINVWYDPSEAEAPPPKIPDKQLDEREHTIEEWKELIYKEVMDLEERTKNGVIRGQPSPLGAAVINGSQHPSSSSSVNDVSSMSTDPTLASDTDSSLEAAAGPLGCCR
Description: as §1, §2

| SMILES | IC50 (cck2) [µM] | IC50 (p38-β) [µM] | IC50 (EGF-R) [µM] | IC50 (PKC) [µM] | IC50 (PKA) [µM] | solubility [1] [µM] | IC50 (DNA-dep PK (PKD)) [µM] | IC50 (p38-γ) [µM] | IC50 (JNK1) [µM] |
| --- | --- | --- | --- | --- | --- | --- | --- | --- | --- |
| Fc1ccccc1-c1nc(Nc2ccncc2)c2ccccc2n1 [Compound 5, 2-(2-fluorophenyl)-4-(4-pyridylamino)-quinazoline] | 245 | 0.928 | 4.2 | > 100 | > 250 | ≥ 250 | 120 | 227 | 167 |
| c1ccc(-c2nc(Nc3ccncc3)c3ccccc3n2)cc1 [Compound 7, 2-phenyl-4-(4-pyridylamino)-quinazoline] | > 500 | 3.65 | 34 | > 500 | 310 | ≥ 250 | 240 | > 300 | > 300 |

Source: patent US6903096B2, “Quinazoline derivatives as medicaments” (Scios, Inc., priority 1998, dated 2005)
